This passage reports TGI and GI50 results from PubChem BioAssay (NCI).

Among the test systems are LOX IMVI melanoma; DU-145 prostate; KM12 colon; SK-MEL-28 melanoma; M14 melanoma; HOP-62 NSCLC; NCI-H460 lung; MCF7 breast; CCRF-CEM leukemia; SNB-19 CNS; UACC-62 melanoma; UO-31 renal; SF-268 CNS; ACHN renal; SK-MEL-5 melanoma; HT29 colon.
Holding throughout (experiment): growth of human tumour cells (NCI), 48 h

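Assay format: 96-well plates, 48-hour exposure. GI50 is the concentration that inhibits growth by half. TGI is the concentration that stops growth completely.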

As to `CC(C)n1c2c([n+](C)c1/C=C/c1ccccc1)C(=O)c1ccccc1C2=O`, the TGI with LOX IMVI melanoma stood at 0.971 µM; in the experiment with DU-145 prostate, 0.948 µM; in the experiment with KM12 colon, 0.975 µM; in the experiment on SK-MEL-28 melanoma, 1.6 µM; in the experiment on M14 melanoma, 1.08 µM; in the experiment on HOP-62 NSCLC, 1.61 µM. Also, the TGI came to 2.43 µM in the experiment with NCI-H460 lung; 0.214 µM with MCF7 breast; 10.9 µM in the experiment with CCRF-CEM leukemia; 0.784 µM in the experiment on SNB-19 CNS; 0.644 µM in the experiment on UACC-62 melanoma; 10.1 µM with UO-31 renal. The TGI was found to be 1.01 µM with SF-268 CNS, 10.9 µM in the experiment on ACHN renal, 0.252 µM in the experiment with SK-MEL-5 melanoma and 2.18 µM in the experiment on HT29 colon.
As to `CCOC(=O)CCC(NC(=O)c1ccc(Nc2nc3ccccc3nc2-c2cccs2)cc1)C(=O)OCC` (stereo unspecified), the TGI in the experiment on LOX IMVI melanoma, with DU-145 prostate, in the experiment on KM12 colon, in the experiment on SK-MEL-28 melanoma, in the experiment with M14 melanoma and in the experiment with HOP-62 NSCLC was greater than 100 µM in each case. The TGI with NCI-H460 lung, with MCF7 breast, in the experiment with CCRF-CEM leukemia, with SNB-19 CNS, with UACC-62 melanoma and in the experiment with UO-31 renal was greater than 100 µM each time. The TGI in the experiment with SF-268 CNS, in the experiment with ACHN renal, in the experiment with SK-MEL-5 melanoma and in the experiment on HT29 colon was greater than 100 µM in each case.
For the compound `CCOC(=O)NC(NC(C)CC)(C(F)(F)F)C(F)(F)F` (stereo unspecified), the TGI in the experiment on LOX IMVI melanoma, in the experiment on DU-145 prostate, in the experiment with KM12 colon, with SK-MEL-28 melanoma, with M14 melanoma and in the experiment on HOP-62 NSCLC was greater than 100 µM throughout. Further, the TGI in the experiment with NCI-H460 lung, with MCF7 breast, with CCRF-CEM leukemia, with SNB-19 CNS, in the experiment on UACC-62 melanoma and in the experiment with UO-31 renal was greater than 100 µM each time. Further, the TGI in the experiment on SF-268 CNS, in the experiment on ACHN renal, with SK-MEL-5 melanoma and in the experiment with HT29 colon was greater than 100 µM in each case.
Turning to `COC(=O)C1(Cc2ccccc2)Cc2ccc3c(c2C1=O)CCC3` (stereo unspecified), the TGI in the experiment on LOX IMVI melanoma was greater than 64 µM; with DU-145 prostate, greater than 100 µM; with KM12 colon, greater than 100 µM; in the experiment with SK-MEL-28 melanoma it was greater than 100 µM; with M14 melanoma it was 97.7 µM; in the experiment on HOP-62 NSCLC, greater than 100 µM. The TGI in the experiment on NCI-H460 lung was greater than 100 µM; in the experiment with MCF7 breast, greater than 100 µM; with CCRF-CEM leukemia, greater than 89.5 µM; in the experiment with SNB-19 CNS it was greater than 100 µM; in the experiment with UACC-62 melanoma, greater than 100 µM; in the experiment on UO-31 renal, greater than 100 µM. Further, the TGI with SF-268 CNS was greater than 100 µM; in the experiment on ACHN renal it was greater than 100 µM; with SK-MEL-5 melanoma, 49.9 µM; in the experiment with HT29 colon, greater than 89.6 µM.
Turning to `O=c1oc2ccc3ccccc3c2cc1-c1nc2ccccc2o1`, the TGI with LOX IMVI melanoma is 32.8 µM; in the experiment with DU-145 prostate it was greater than 52.3 µM; in the experiment on KM12 colon, greater than 63.2 µM; in the experiment on SK-MEL-28 melanoma, greater than 59.2 µM; with M14 melanoma, greater than 56 µM; in the experiment with HOP-62 NSCLC, greater than 52.1 µM. Besides, the TGI with NCI-H460 lung was greater than 100 µM; in the experiment on MCF7 breast, 20.5 µM; with CCRF-CEM leukemia, greater than 100 µM; in the experiment with SNB-19 CNS it was greater than 46.6 µM; in the experiment with UACC-62 melanoma it was greater than 100 µM; with UO-31 renal, greater than 54.8 µM. The TGI in the experiment on SF-268 CNS amounted to 48.4 µM; in the experiment on ACHN renal, 29.9 µM; in the experiment on SK-MEL-5 melanoma, 58.8 µM; in the experiment on HT29 colon, 48.4 µM.
Consider `COc1ccc2[nH]c3c(c2c1)COc1ccccc1C3=O`, for which the TGI with LOX IMVI melanoma, in the experiment on DU-145 prostate, in the experiment with KM12 colon, in the experiment on SK-MEL-28 melanoma, in the experiment on M14 melanoma and with HOP-62 NSCLC was greater than 100 µM throughout. Besides, the TGI in the experiment on NCI-H460 lung, with MCF7 breast, with CCRF-CEM leukemia, in the experiment with SNB-19 CNS, with UACC-62 melanoma and with UO-31 renal was greater than 100 µM throughout. For the same compound, the TGI in the experiment on SF-268 CNS, in the experiment with ACHN renal, with SK-MEL-5 melanoma and in the experiment with HT29 colon was greater than 100 µM each time.
For the compound `O=C(O)c1ccc(C(c2c(O)c3ccccc3oc2=O)c2c(O)c3ccccc3oc2=O)cc1`, the TGI with LOX IMVI melanoma, in the experiment on DU-145 prostate, with KM12 colon, in the experiment on SK-MEL-28 melanoma, in the experiment on M14 melanoma and with HOP-62 NSCLC was greater than 100 µM in each case. In addition, the TGI in the experiment on NCI-H460 lung, in the experiment on MCF7 breast, with CCRF-CEM leukemia, in the experiment on SNB-19 CNS, in the experiment on UACC-62 melanoma and with UO-31 renal was greater than 100 µM in each case. The TGI in the experiment with SF-268 CNS, in the experiment on ACHN renal, in the experiment with SK-MEL-5 melanoma and in the experiment on HT29 colon was greater than 100 µM each time.
In the case of `O=C(O)CC/C(=N\Nc1nsc2ccccc12)c1ccc(Cl)cc1`, the TGI is 25.7 µM with LOX IMVI melanoma; greater than 100 µM in the experiment on DU-145 prostate; greater than 100 µM with KM12 colon; 37.4 µM in the experiment on SK-MEL-28 melanoma; greater than 65.8 µM in the experiment with M14 melanoma; greater than 63.5 µM in the experiment with HOP-62 NSCLC. For the same compound, the TGI was greater than 81.5 µM in the experiment with NCI-H460 lung; greater than 100 µM in the experiment with MCF7 breast; greater than 54.6 µM in the experiment on CCRF-CEM leukemia; greater than 100 µM in the experiment on SNB-19 CNS; 50.6 µM with UACC-62 melanoma; greater than 67.1 µM in the experiment on UO-31 renal. Besides, the TGI in the experiment with SF-268 CNS is greater than 89.3 µM; with ACHN renal, greater than 80.6 µM; with SK-MEL-5 melanoma, greater than 31.6 µM; in the experiment with HT29 colon it was greater than 78.1 µM.
With `O=[N+]([O-])O.[Ga]`, the TGI was greater than 8240 µM in the experiment with LOX IMVI melanoma; greater than 10000 µM in the experiment with DU-145 prostate; greater than 10000 µM in the experiment on KM12 colon; greater than 10000 µM in the experiment with SK-MEL-28 melanoma; greater than 10000 µM in the experiment with M14 melanoma; 1960 µM in the experiment on HOP-62 NSCLC. In addition, the TGI is 8990 µM in the experiment on NCI-H460 lung; 6200 µM with MCF7 breast; 3190 µM in the experiment on CCRF-CEM leukemia; greater than 10000 µM in the experiment with SNB-19 CNS; greater than 10000 µM with UACC-62 melanoma; greater than 7740 µM with UO-31 renal. In addition, the TGI in the experiment on SF-268 CNS was greater than 10000 µM; in the experiment with ACHN renal, greater than 10000 µM; in the experiment with SK-MEL-5 melanoma, 1310 µM; in the experiment with HT29 colon, greater than 7200 µM. For the same compound, the GI50 was 892 µM with UACC-62 melanoma and 3000 µM in the experiment on SF-268 CNS.
